Test results from patent US11534283B2 (priority 2017, dated 2022).
“Also recorded” adds a separate entry of the source.

Experiments:
[1] = tested on: cells labeled adjacent the implantation site in the adult mouse cortex; assay type: cell-based
Description: Implantable devices were filled with α-bungarotoxin fused to the dye Alexa Fluor 555 (α-BTX Alexa 555) in PBS at a concentration of 0.3 mg/mL. Animals were treated with the implantable device for 2 hours prior to sacrifice. Tissues were prepared for live cell electrophysiology assays (patch clamp) and fluorescence imaging.
Implantable devices filled with fluorescently labeled α-bungarotoxin (α-BTX) were implanted and the release was studied via imaging and live cell electrophysiology assays.

[2] = tested on: adult mouse cortex; conditions: in vivo

| Compound | electrophysiological activity of agonist AR-R17779 in the control group ([1]; cells labeled with control (Alexa 555) released from the device, patch clamp) | electrophysiological response of the α-BTX labeled cell to agonist AR-R17779 [1] | labeling of individual cells (uptake) [2] | localization of fluorescence after release from the implantable device [2] |
| --- | --- | --- | --- | --- |
| O=C1NCC2(CN3CCC2CC3)O1 (stereo not shown) [AR-R17779] | inhibitory activity | – | – | – |
| α-bungarotoxin [α-BTX-Alexa 555] | – | no activity | individual cells were clearly labeled; also recorded: labeling individual cells | local to the implantation site; also recorded: adjacent the implantation site |
